Consider 7 molecules from ChEMBL document CHEMBL1148683, “Synthesis and monoamine transporter affinity of front bridged tricyclic 3beta-(4'-halo or 4'-methyl)phenyltropanes bearing methylene or carbomethoxymethylene on the bridge to the 2beta-position” (Bioorg Med Chem Lett, 2006).

For data set [1], the system named is Rhesus monkey. Nature of the data set: Selective uptake in thalamus over occipital cortex of iv dosed rhesus monkey after 105 mins by microPET imaging assay. It counts as ADME, organism-based, Macaca mulatta. The conditions noted are these: in vivo, 1.75 h.
In data set [2] the test system is Rhesus monkey. Description: Selective uptake in midbrain over occipital cortex of iv dosed rhesus monkey after 105 mins by microPET imaging assay. The conditions noted are these: in vivo, 1.75 h. It counts as ADME, organism-based, Macaca mulatta, Brain.
The target of data set [3] is T1, Sodium-dependent noradrenaline transporter (Homo sapiens, UniProt P23975). Nature of the data set: Displacement of [3H]nisoxetine from human NET transfected in HEK293 cells. It counts as cell-based. Background: Displacement assays read how much labelled ligand stays bound in the presence of the test substance.
For data set [4], the system named is Rhesus monkey. Nature of the data set: Selective uptake in cerebellum over occipital cortex of iv dosed rhesus monkey after 25 mins by microPET imaging assay. It counts as ADME, organism-based, Macaca mulatta. Particulars: in vivo.
Data set [5] has as its target Sodium-dependent dopamine transporter (Homo sapiens, UniProt Q01959). Nature of the data set: Displacement of [125I]RTI-55 from human DAT transfected in HEK293 cells. It counts as cell-based.
The target of data set [6] is Sodium-dependent serotonin transporter (Homo sapiens, UniProt P31645). Nature of the data set: Displacement of [3H]citalopram from human SERT transfected in HEK293 cells. It counts as cell-based.
In data set [7] the test system is Rhesus monkey. Description: Selective uptake in medulla over occipital cortex of iv dosed rhesus monkey after 105 mins by microPET imaging assay. It is filed as ADME, organism-based, Macaca mulatta. The conditions noted are these: in vivo, 1.75 h.
Data set [8] has as its target T1, Sodium-dependent noradrenaline transporter. Nature of the data set: Inhibition of (-)-[3H]NE uptake at NET.
Data set [9] deals with Rhesus monkey. Description: Selective uptake in caudate over occipital cortex of iv dosed rhesus monkey after 105 mins by microPET imaging assay. It is filed as ADME, organism-based, Macaca mulatta. The conditions noted are these: in vivo, 1.75 h.
The subject of data set [10] is Rhesus monkey. Nature of the data set: Selective uptake in putamen over occipital cortex of iv dosed rhesus monkey after 105 mins by microPET imaging assay. It is filed as ADME, organism-based, Macaca mulatta. Particulars: in vivo, 1.75 h.
The subject of data set [11] is Rhesus monkey. Nature of the data set: Selective uptake in pons over occipital cortex of iv dosed rhesus monkey after 105 mins by microPET imaging assay. It is filed as ADME, organism-based, Macaca mulatta. Particulars: in vivo, 1.75 h.
The target in data set [12] is Serotonin and norepinephrine transporters (SERT/NET) (Homo sapiens) (UniProt P31645+P23975). Nature of the data set: Selectivity for human SERT over NET. It counts as protein assay.
Data set [13] concerns the target Monoamine transporters; serotonin & dopamine (Homo sapiens) (UniProt P31645+Q01959). Nature of the data set: Selectivity for human SERT over DAT. It is filed as protein assay.

The structures appear in SMILES notation.

Broadly, the Ki is the dissociation constant of the complex between target and ligand, obtained from inhibition or displacement. By IC50 is commonly meant the concentration that inhibits the measured activity by half.

Chain of Sodium-dependent serotonin transporter (P31645 whole entry): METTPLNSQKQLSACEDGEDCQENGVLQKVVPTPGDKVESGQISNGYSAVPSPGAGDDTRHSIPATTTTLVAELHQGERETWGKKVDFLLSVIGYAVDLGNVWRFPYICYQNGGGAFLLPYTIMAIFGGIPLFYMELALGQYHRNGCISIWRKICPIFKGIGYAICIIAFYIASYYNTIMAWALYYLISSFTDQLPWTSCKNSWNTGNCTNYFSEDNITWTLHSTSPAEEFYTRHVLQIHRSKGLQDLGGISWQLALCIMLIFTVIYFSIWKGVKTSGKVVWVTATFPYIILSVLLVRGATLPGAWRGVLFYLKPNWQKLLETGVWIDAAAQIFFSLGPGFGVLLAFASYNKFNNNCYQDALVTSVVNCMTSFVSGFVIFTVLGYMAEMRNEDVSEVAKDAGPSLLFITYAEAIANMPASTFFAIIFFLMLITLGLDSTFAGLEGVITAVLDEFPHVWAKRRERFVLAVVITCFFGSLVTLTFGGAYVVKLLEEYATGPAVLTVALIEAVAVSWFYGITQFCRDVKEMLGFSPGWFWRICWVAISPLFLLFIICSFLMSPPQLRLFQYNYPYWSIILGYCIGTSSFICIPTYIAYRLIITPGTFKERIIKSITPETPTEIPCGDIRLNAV
T1 sequence (P23975 whole entry): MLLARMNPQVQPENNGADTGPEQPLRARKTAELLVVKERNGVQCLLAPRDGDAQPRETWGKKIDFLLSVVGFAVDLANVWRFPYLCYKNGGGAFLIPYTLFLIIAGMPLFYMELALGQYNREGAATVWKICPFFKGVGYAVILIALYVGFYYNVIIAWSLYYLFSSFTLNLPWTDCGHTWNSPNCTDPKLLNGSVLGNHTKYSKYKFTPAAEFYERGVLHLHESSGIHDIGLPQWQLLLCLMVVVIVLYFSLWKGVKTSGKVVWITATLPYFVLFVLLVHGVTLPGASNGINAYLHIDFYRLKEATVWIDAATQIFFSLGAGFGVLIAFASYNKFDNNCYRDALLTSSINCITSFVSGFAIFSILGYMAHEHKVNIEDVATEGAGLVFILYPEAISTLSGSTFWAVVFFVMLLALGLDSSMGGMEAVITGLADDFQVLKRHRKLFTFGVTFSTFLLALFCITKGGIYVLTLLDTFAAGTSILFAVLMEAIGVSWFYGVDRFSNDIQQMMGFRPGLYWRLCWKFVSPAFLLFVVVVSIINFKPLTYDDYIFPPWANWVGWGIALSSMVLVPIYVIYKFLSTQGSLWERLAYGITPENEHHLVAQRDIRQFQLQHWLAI
Chain of Sodium-dependent dopamine transporter (Q01959 whole entry): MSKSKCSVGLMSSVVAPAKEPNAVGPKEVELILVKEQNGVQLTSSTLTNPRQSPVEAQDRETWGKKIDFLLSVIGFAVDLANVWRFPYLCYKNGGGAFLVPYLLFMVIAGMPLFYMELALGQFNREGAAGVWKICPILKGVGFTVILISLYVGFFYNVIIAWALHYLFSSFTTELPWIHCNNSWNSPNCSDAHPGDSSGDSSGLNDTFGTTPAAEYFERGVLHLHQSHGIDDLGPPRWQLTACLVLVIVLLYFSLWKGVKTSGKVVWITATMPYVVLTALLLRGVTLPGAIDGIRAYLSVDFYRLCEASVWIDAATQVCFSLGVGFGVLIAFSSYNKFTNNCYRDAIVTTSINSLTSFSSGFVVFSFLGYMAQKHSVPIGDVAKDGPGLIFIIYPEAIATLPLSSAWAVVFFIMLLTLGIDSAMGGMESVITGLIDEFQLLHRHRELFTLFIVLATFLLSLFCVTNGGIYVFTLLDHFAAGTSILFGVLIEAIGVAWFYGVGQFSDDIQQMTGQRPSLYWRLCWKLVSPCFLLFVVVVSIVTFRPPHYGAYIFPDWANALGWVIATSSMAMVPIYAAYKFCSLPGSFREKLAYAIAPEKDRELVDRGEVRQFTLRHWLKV
Chain of Monoamine transporters; serotonin & dopamine (Homo sapiens) (P31645 whole entry, looked up): as the sequence (P31645 whole entry) above
Chain of Monoamine transporters; serotonin & dopamine (Homo sapiens) (Q01959 whole entry, looked up): as the sequence (Q01959 whole entry) above
Chain of Serotonin and norepinephrine transporters (SERT/NET) (Homo sapiens) (P23975 whole entry, looked up): as the sequence (P23975 whole entry) above
Chain of Serotonin and norepinephrine transporters (SERT/NET) (Homo sapiens) (P31645 whole entry, looked up): as the sequence (P31645 whole entry) above

As for `C=C1CN2C3CCC2C1C(c1ccc(C)cc1)C3` (stereo unspecified), the Ratio in [1] is reported as 1.48; in [2], 1.53; in data set [4], 1.39; in data set [7] it was 1.36; in [9] it was 1.47; in data set [10] it was 1.83. The Ratio in [11] is reported as 1.52. Also, the Ki in data set [3] came out at 17.3 nM; in data set [5] it was 41 nM; in data set [6] it was 7.77 nM. The IC50 in data set [8] was found to be 2.2 nM.

`C=C1CN2C3CCC2C1C(c1ccc(Br)cc1)C3` (stereo unspecified): the Ki in data set [3] was determined as 2.94 nM; in data set [5], 41.9 nM; in data set [6], 0.28 nM.

For `C=C1CN2C3CCC2C1C(c1ccc(I)cc1)C3` (stereo unspecified), the Ki amounted to 5.87 nM in [3], 8.48 nM in [5] and 0.09 nM in data set [6]. The values for the Selectivity ratio in data set [12] and in data set [13] were 65 and 94, respectively.

`C=C1CN2C3CCC2C1C(c1ccc(Cl)cc1)C3` (stereo unspecified): the values for the inhibition constant (Ki) in data set [3], in data set [5] and in data set [6] were 4.84 nM, 12.3 nM and 0.82 nM, respectively.

Consider `COC(=O)/C=C1/CN2C3CCC2C1C(c1ccc(C)cc1)C3` (stereo unspecified), for which the Ki was determined as 25.5 nM in [3], 13.2 nM in data set [5] and 98.3 nM in [6].

On to `COC(=O)/C=C1/CN2C3CCC2C1C(c1ccc(Cl)cc1)C3` (stereo unspecified), for which the Ki was 13 nM in data set [3], 4.54 nM in data set [5] and 18.7 nM in [6].

Regarding `COC(=O)/C=C1/CN2C3CCC2C1C(c1ccc(Br)cc1)C3` (stereo unspecified), the Ki in [3] worked out at 12.5 nM; in data set [5], 2.94 nM; in data set [6] it was 5.63 nM.
